Experimental data as given in patent US7384636B2, “Polypeptide” (Kabushiki Kaisha Hayashibara Seibutsu Kagaku Kenkyujo, priority 2003, dated 2008).

Experiments:
Format in all cases: in vivo
OMP [1] = experiment: Titer against OMP, BALB/c mice immunized intranasally (Experiment 8); settings: intranasal
Experimental: (§1) All the mice were bled after one week.
(§2) As a negative control, DUP was prepared.

the immunized peptide [2] = experiment: Titer against the immunized peptide, BALB/c mice immunized intranasally (Experiment 8); settings: intranasal
Experimental: as §1, §2

the immunized peptide [3] = experiment: Titer against the immunized peptide, B10 mice immunized intranasally (Experiment 7); settings: intranasal, with or without CT
Experimental: as §1, §2

OMP [4] = experiment: Titer against OMP, B10 mice immunized intranasally (Experiment 7); settings: intranasal, with or without CT
Experimental: as §1, §2

[5] = test system: the immunized polypeptide; experiment: Titer against the immunized peptide, BALB/c mice immunized intraperitoneally (Experiment 5); settings: intraperitoneal
Text: as §1

OMP [6] = experiment: Titer against OMP, BALB/c mice immunized intraperitoneally (Experiment 5); settings: intraperitoneal
Text: as §1

Substance | Titer against the immunized peptide (the immunized peptide [2]) | Titer against the immunized peptide (the immunized peptide [3]) | Titer against OMP (OMP [4]) | also measured
OMP-KK-OVAp: SEQ ID NO:40, control, OMP linked by KK to OVA peptide fragment (LAVYWELLAKYLLDRVQKVAKKISQAVHAAHAEINE; OMP-KK-OVAp) | 1,589 |  |  | Titer against OMP (OMP [1]): 108
OMP-KK-RGD-UP: SEQ ID NO:34, RGD at N-terminal side of UP (LAVYWELLAKYLLDRVQKVAKKRGDTYEAALKQYEADL; OMP-KK-RGD-UP) |  | 723 | 16 | 
OMP-KK-UP-RGD: SEQ ID NO:35, RGD at C-terminal side of UP (LAVYWELLAKYLLDRVQKVAKKTYEAALKQYEADLRGD; RGD-KK-UP-RGD) |  | 9,483 | 16 | 
OMP-KK-UP: SEQ ID NO:20, KK inserted between OMP and UP (LAVYWELLAKYLLDRVQKVAKKTYEAALKQYEADL; OMP-KK-UP) |  | 128 | 32 | Titer against the immunized peptide [5]: 782,685; Titer against OMP (OMP [6]): 1,731
OMP-RGD-KK-UP: SEQ ID NO:33, RGD at C-terminal side of OMP (LAVYWELLAKYLLDRVQKVARGDKKTYEAALKQYEADL; OMP-RGD-KK-UP) |  | 24,370 | 16 | 
RGD-OMP-KK-UP: SEQ ID NO:32, RGD at N-terminal side of OMP in OMP-KK-UP (RGDLAVYWELLAKYLLDRVQKVAKKTYEAALKQYEADL; RGD-OMP-KK-UP) |  | 11,514 | 32 | 
T1-KK-UP: SEQ ID NO:41, control, T1 peptide of HIV IIIB gp120 linked by KK to UP (KQIINMWQAVGKAMYAKKTYEAALKQYEADL; T1-KK-UP) | 160 |  |  | 
T1-RGD-KK-UP: SEQ ID NO:39, T1 T cell epitope, RGD, KK linker, UP (KQIINMWQAVGKAMYARGDKKTYEAALKQYEADL; T1-RGD-KK-UP) | 1,707 |  |  | 
UP-KK-OMP: SEQ ID NO:21, KK inserted between UP and OMP (TYEAALKQYEADLKKLAVYWELLAKYLLDRVQKVA; UP-KK-OMP) |  |  |  | Titer against the immunized peptide [5]: 29,921; Titer against OMP (OMP [6]): 1,211
